Source: patent US12187709B2 (Genentech, Inc., priority 2021, dated 2025)

What was measured:
Cbl-b = Cbl-b (Homo sapiens (Human), UniProt Q13191); test: Cbl-b LCK Ub TR-FRET assay (Cbl-b Lck HTRF); format: biochemical; details: for IC50: Cbl-b LCK Ub TR-FRET; for (fold-selectivity) Cbl-b and C-Cbl Selectivity / fold-selectivity (Cbl-b over C-cbl): ratio C-cbl Lck HTRF IC50 / Cbl-b Lck HTRF IC50
Method in brief: (§1)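 Signal is read once the detection mix has stood 20 min at ambient temperature. Curves are anchored by DMSO as maximum and by omission of LCK as minimum.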

c-Cbl (residues 47-435) = c-Cbl (residues 47-435) (Homo sapiens (Human), UniProt P22681); test: c-Cbl SPR assay; format: binding; details: 20° C.
Method: (§2) Affinity of binding to Cbl-b and c-Cbl for compounds described herein was assessed by surface plasmon resonance (SPR) according to the following protocol.
(§3) A surface capture range of 1300-1500 RU of protein was used for both isoforms.
(§4) For SPR measurements, 6 concentrations with 2 fold serial dilution were measured with blanks flanking each series for double referencing. […] SPR sensorgrams were recorded in multi-cycle kinetics format, with a contact time of 60 seconds and a flow rate of 40 μl/min, the dissociation time was varied between 120-1200 seconds aiming for 4-5 half-lives of the measured interaction.
(§5) Kinetic and affinity parameters were extracted from the multicycle kinetics data fitting to a 1:1 binding model using the Biacore™ Incyte evaluation software (Cytiva).
(§6) Chaser assay utilize a single cycle kinetics SPR experiment with a contact time of 120 seconds, a flow rate of 50 μl/min and a dissociation time of 450 seconds. Single cycle kinetics titration utilized an initial blank injection and 5 concentrations with 2 fold serial dilution with a maximum concentration of 500 nM, blanked to a preceding 6 point blank single cycle kinetics injection for double referencing.
(§7) The kd is measured independently by determining the percentage unoccupied compound binding site over time by measuring the binding of a chaser compound measured by SPR.
(§8) Chaser binding was measured by a multicycle kinetics SPR experiment using a contact time of 20 seconds, a flow rate of 30 μl/min, and a dissociation time of 120 seconds. […] The % compound bound at a given time was determined by comparison to a single injection of chaser preceding the single cycle kinetics titration defined below. % Compound Bound=(1−(RUT/RUT0))*100
(§9) The % compound bound is plotted against time in seconds and fit to a single exponential, where the exponent represents the kd of the compound-protein complex. The single cycle kinetics experiment of the compound is then fit with a fixed kd determined using the chaser.

[1] = target: Human Cbl-b (residues 40-426) (Homo sapiens (Human), UniProt Q13191); test: Cbl-b SPR assay; format: binding; details: for Fold of selectivity: C-cbl SPR Kd vs Cbl-b SPR Kd; for Kd: SPR, 20° C.
Method: as §2, §3, §4, §5, §6, §7, §8, §9

c-Cbl = c-Cbl (Homo sapiens (Human), UniProt P22681); test: C-Cbl LCK Ub TR-FRET assay (C-cbl Lck HTRF); format: biochemical
Method in brief: as §1

Sequence of c-Cbl (P22681 47-435): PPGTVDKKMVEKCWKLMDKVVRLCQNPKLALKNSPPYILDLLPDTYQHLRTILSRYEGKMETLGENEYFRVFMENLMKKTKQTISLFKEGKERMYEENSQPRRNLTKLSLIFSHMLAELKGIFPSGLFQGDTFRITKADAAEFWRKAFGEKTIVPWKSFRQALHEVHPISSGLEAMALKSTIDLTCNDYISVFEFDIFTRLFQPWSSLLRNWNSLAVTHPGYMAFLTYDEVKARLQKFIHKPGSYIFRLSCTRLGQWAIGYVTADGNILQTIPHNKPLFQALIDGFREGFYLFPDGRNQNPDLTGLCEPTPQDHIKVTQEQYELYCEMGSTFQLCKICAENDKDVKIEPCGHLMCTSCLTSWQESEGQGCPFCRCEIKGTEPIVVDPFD
Sequence of c-Cbl (residues 47-435) (P22681 47-435): as above
Sequence of Cbl-b (Q13191 40-426): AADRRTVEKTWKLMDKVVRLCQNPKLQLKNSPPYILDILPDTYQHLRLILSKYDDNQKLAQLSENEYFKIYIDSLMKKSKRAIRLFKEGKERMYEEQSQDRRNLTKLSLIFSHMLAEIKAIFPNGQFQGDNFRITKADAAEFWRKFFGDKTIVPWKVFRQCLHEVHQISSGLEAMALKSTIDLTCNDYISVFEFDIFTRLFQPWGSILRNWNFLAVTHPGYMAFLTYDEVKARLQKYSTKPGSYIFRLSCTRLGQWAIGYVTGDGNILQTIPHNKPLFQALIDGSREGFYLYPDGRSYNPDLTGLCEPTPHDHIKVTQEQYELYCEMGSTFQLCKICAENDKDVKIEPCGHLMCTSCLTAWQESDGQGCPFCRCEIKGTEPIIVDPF
Sequence of Human Cbl-b (residues 40-426) (Q13191 40-426): as above

Compound	IC50 (Cbl-b; Example 121) [nM]	(fold-selectivity) Cbl-b and C-Cbl Selectivity (Cbl-b) [x]	Kd (c-Cbl (residues 47-435)) [nM]	Fold of selectivity [1] [×]	Kd [1] [nM]	IC50 (c-Cbl) [nM]	IC50 (Cbl-b) [nM]	fold-selectivity (Cbl-b over C-cbl) (Cbl-b)
CO[C@H]1C[C@](c2cccc(N3Cc4c(cc(CN[C@]5(C)C[C@H](O)C5)cc4C(F)(F)F)C3=O)c2)(c2nncn2C)C1 [Compound 484, 6-((((1s,3S)-3-hydroxy-1-methylcyclobutyl)amino)methyl)-2-(3-((1r,3R)-3-methoxy-1-(4-methyl-4H-1,2,4-triazol-3-yl)cyclobutyl)phenyl)-4-(trifluoromethyl)isoindolin-1-one]	26	10	200	13	13	260	–	–
CC1(NCc2cc3c(c(C(F)(F)F)c2)CN(c2cccc([C@@H](C4COC4)n4ccnn4)c2)C3=O)CCC1 (single isomer, unassigned) [Compound 436]	–	4.2	3500	5.3	600	2400	–	–
CO[C@H]1C[C@](c2cccc(N3Cc4c(cc(CNCC5(C)CC5(F)F)cc4C(F)(F)F)C3=O)c2)(c2nncn2C)C1 (some centres unmarked) [Compound 501, 6-((((2,2-difluoro-1-methylcyclopropyl)methyl)amino)methyl)-2-(3-((1r,3r)-3-methoxy-1-(4-methyl-4H-1,2,4-triazol-3-yl)cyclobutyl)phenyl)-4-(trifluoromethyl)isoindolin-1-one]	11	4.8	81	16	4.6	52	–	–
Cn1cnnc1[C@@H](c1cccc(N2Cc3c(cc(CNC4(C)CCC4)cc3C(F)(F)F)C2=O)c1)C1CCCC1 [Compound 256, (R)-2-(3-(cyclopentyl(4-methyl-4H-1,2,4-triazol-3-yl)methyl)phenyl)-6-(((1-methylcyclobutyl)amino)methyl)-4-(trifluoromethyl)isoindolin-1-one]	–	–	2500	14	180	1400	210	6.5x
CC(C)O[C@H]1C[C@@](c2cccc(N3Cc4c(cc(CNC5(C)CCC5)cc4C(F)(F)F)C3=O)c2)(c2nncn2C)C1 [Compound 222, 2-(3-((1s,3s)-3-isopropoxy-1-(4-methyl-4H-1,2,4-triazol-3-yl)cyclobutyl)phenyl)-6-(((1-methylcyclobutyl)amino)methyl)-4-(trifluoromethyl)isoindolin-1-one]	–	–	200	13	14	270	64	4.2x
C=C1CC(c2cccc(N3Cc4c(cc(CNC5(C)CCC5)cc4C(F)(F)F)C3=O)c2)(c2nncn2C)C1 [Compound 18, 2-(3-(1-(4-methyl-4H-1,2,4-triazol-3-yl)-3-methylenecyclobutyl)phenyl)-6-(((1-methylcyclobutyl)amino)methyl)-4-(trifluoromethyl)-isoindolin-1-one]	–	–	5.6	3.7	1.5	7.7	7.9	(0.97x)
COC[C@H]1C[C@](c2cccc(N3Cc4c(cc(CNC5(C)CCC5)cc4C(F)(F)F)C3=O)c2)(c2nncn2C)C1 [Compound 104, 2-(3-((1r,3r)-3-(methoxymethyl)-1-(4-methyl-4H-1,2,4-triazol-3-yl)cyclobutyl)phenyl)-6-(((1-methylcyclobutyl)amino)methyl)-4-(trifluoromethyl)isoindolin-1-one]	–	–	15	9.1	1.6	17	13	1.4x
Cn1cnnc1[C@H](c1cccc(N2Cc3c(cc(CNC4(C)CCC4)cc3C(F)(F)F)C2=O)c1)C1CCC1 (single isomer, unassigned) [Compound 259]	–	–	1.1	5.5	0.22	16	16	1.0x
CO[C@H]1C[C@@](c2cccc(N3Cc4ccc(CNC5(C)CCC5)cc4C3=O)c2)(c2nncn2C)C1 [Compound 448, 2-(3-((1s,3s)-3-methoxy-1-(4-methyl-4H-1,2,4-triazol-3-yl)cyclobutyl)phenyl)-6-(((1-methylcyclobutyl)amino)methyl)isoindolin-1-one]	730	5.5	2500	5.8	420	3900	–	–
COC1CC2(C1)CC(c1cccc(N3Cc4c(cc(CNC5(C)CCC5)cc4C(F)(F)F)C3=O)c1)(c1nncn1C)C2 (centres unmarked) [Compound 229, 2-(3-(6-methoxy-2-(4-methyl-4H-1,2,4-triazol-3-yl)spiro[3.3]heptan-2-yl)phenyl)-6-(((1-methylcyclobutyl)amino)methyl)-4-(trifluoromethyl)isoindolin-1-one]	–	–	760	7.0	110	1400	230	5.9x
Cn1cnnc1C1(c2cccc(N3Cc4c(cc(CNC5(C)CCC5)cc4C(F)(F)F)C3=O)c2)CCCC1 [Compound 292, 2-(3-(1-(4-methyl-4H-1,2,4-triazol-3-yl)cyclopentyl)phenyl)-6-(((1-methylcyclobutyl)amino)methyl)-4-(trifluoromethyl)isoindolin-1-one]	–	–	31	6.3	5	23	9.8	2.4x
C=C[C@@H](C)Nc1cc(N2Cc3c(cc(CNC4(C)CCC4)cc3C(F)(F)F)C2=O)cc([C@]2(c3nncn3C)C[C@H](OC)C2)c1 (single isomer, unassigned) [Compound 219]	–	–	29	6.5	4.5	36	13	2.7x
2-(3-(2-(4-methyl-4H-1,2,4-triazol-3-yl)-6-oxospiro[3.3]heptan-2-yl)phenyl)-6-(((1-methylcyclobutyl)amino)methyl)-4-(trifluoromethyl)isoindolin-1-one [Compound 92]	–	–	24	6.4	3.4	–	–	–
2-(3-(6-hydroxy-2-(4-methyl-4H-1,2,4-triazol-3-yl)spiro[3.3]heptan-2-yl)phenyl)-6-(((1-methylcyclobutyl)amino)methyl)-4-(trifluoromethyl)isoindolin-1-one [Compound 93]	–	–	7.5	7.5	1	–	–	–
2-(3-((1r,3r)-3-fluoro-1-(4-methyl-4H-1,2,4-triazol-3-yl)cyclobutyl)phenyl)-6-(((1-methylcyclobutyl)amino)methyl)-4-(trifluoromethyl)isoindolin-1-one [Compound 36]	–	–	170	2.8	59	–	–	–
CC(C)[C@H]1CN(C)CCN1Cc1cc2c(c(C(F)(F)F)c1)CN(c1cccc(C3(c4nncn4C)CC4(COC4)C3)c1)C2=O	–	–	78	14	5.7	–	–	–
2-(3-(3,3-dimethyl-1-(4-methyl-4H-1,2,4-triazol-3-yl)cyclobutyl)phenyl)-6-(((1-methylcyclobutyl)amino)methyl)-4-(trifluoromethyl)-isoindolin-1-one [Compound 39]	–	–	16	6.6	2.3	–	–	–
Cn1cnnc1C1(c2cccc(N3Cc4c(cc(CNC5(C)CCC5)cc4C(F)(F)F)C3=O)c2)CC2(CCC2)C1	–	–	20	9.5	2.1	–	–	–
Cn1cnnc1[C@@H](c1ccccc1)c1cccc(N2Cc3c(Cl)cc(CNC4(C)CCC4)cc3C2=O)c1 (single isomer, unassigned) [Compound 159]	–	–	–	–	–	20000	≥ 20000	1.0x
Cn1cnnc1[C@@](O)(c1ccccc1)c1cccc(N2Cc3c(cc(CNC4(C)CCC4)cc3C(F)(F)F)C2=O)c1 (single isomer, unassigned) [Compound 155]	–	–	–	–	–	10000	10000	2.0x
Cn1cnnc1[C@@](O)(c1ccccc1)c1cccc(N2Cc3c(Cl)cc(CNC4(C)CCC4)cc3C2=O)c1 (single isomer, unassigned) [Compound 410]	4500	3.4	–	–	–	15000	–	–
